{
  "source": "paper PMC6462165",
  "about": "(International Journal of Nanomedicine, 2019)",
  "origin": "cited, not measured here",
  "test_system": "endothelial cell proliferation",
  "settings": "inhibition of endothelial cell proliferation; cited from earlier work",
  "data": [
    {"sequence": "IVRRADRAAVP [ES2]", "values": [
      {"measurement": "activity relative to the ES sequence", "result": "about three times more active than the ES sequence"}
    ]}
  ]
}
